Test results reported in ChEMBL document CHEMBL3098001, “Synthesis and biological evaluation of cyclopentyl-triazolol-pyrimidine (CPTP) based P2Y12 antagonists” (Bioorg Med Chem Lett, 2014).

How the values were obtained:
[1] = target: P2Y purinoceptor 12 (Rattus norvegicus) (UniProt Q9EPX4); assay: Antagonist activity at P2Y12 receptor in rat platelet-rich plasma assessed as inhibition of ADP-induced platelet aggregation at 3 uM incubated for 5 mins prior to ADP-challenge by light transmission-based assay
[2] = AUC in dog at 1 mg/kg, po; type: ADME, organism-based, Canis lupus familiaris; design: dose 1 mg/kg, route oral; details: plasma
[3] = Cmax in dog at 1 mg/kg, po; type: ADME, organism-based, Canis lupus familiaris; design: dose 1 mg/kg, route oral; details: in vivo
[4] = Half life in dog at 1 mg/kg, po; type: ADME, organism-based, Canis lupus familiaris; design: dose 1 mg/kg, route oral; details: in vivo
[5] = Apparent volume of distribution during terminal phase in dog at 1 mg/kg, po; type: ADME, organism-based, Canis lupus familiaris; design: dose 1 mg/kg, route oral; details: in vivo, read-out: Vz/F
[6] = Apparent oral clearance in dog at 1 mg/kg; type: ADME, organism-based, Canis lupus familiaris; design: dose 1 mg/kg, route oral; details: in vivo
[7] = AUC in rat at 10 mg/kg, po; type: ADME, organism-based; design: dose 10 mg/kg, route oral; details: plasma
[8] = Cmax in rat at 10 mg/kg, po; type: ADME, organism-based; design: dose 10 mg/kg, route oral; details: in vivo
[9] = Half life in rat at 10 mg/kg, po; type: ADME, organism-based; design: dose 10 mg/kg, route oral; details: in vivo
[10] = (§1) Apparent volume of distribution during terminal phase in rat at 10 mg/kg, po; type: ADME, organism-based; design: dose 10 mg/kg, route oral; details: in vivo, read-out: Vz/F
[11] = Apparent oral clearance in rat at 10 mg/kg; type: ADME, organism-based; design: dose 10 mg/kg, route oral; details: in vivo
[12] = system: Rattus norvegicus; assay: Inhibition of ADP-induced platelet aggregation in Sprague-Dawley rat assessed as blood loss volume at 10 mg/kg, po administered 2 hrs prior to transection measured for 30 mins (reference value: < 0.5 ml); type: organism-based; design: dose 10 mg/kg, route oral; details: in vivo, 0.5 h
[13] = system: Rattus norvegicus; assay: Inhibition of ADP-induced platelet aggregation in Sprague-Dawley rat assessed as blood loss volume at 5 mg/kg, po administered 2 hrs prior to transection measured for 30 mins (reference value: < 0.5 ml); type: organism-based; design: dose 5 mg/kg, route oral; details: in vivo, 0.5 h
[14] = system: Rattus norvegicus; assay: Inhibition of ADP-induced platelet aggregation in Sprague-Dawley rat assessed as blood loss volume at 2.5 mg/kg, po administered 2 hrs prior to transection measured for 30 mins (reference value: < 0.5 ml); type: organism-based; design: dose 2.5 mg/kg, route oral; details: in vivo, 0.5 h
[15] = system: Rattus norvegicus; assay: Inhibition of ADP-induced platelet aggregation in Sprague-Dawley rat assessed as blood loss volume at 1.25 mg/kg, po administered 2 hrs prior to transection measured for 30 mins (reference value: < 0.5 ml); type: organism-based; design: dose 1.25 mg/kg, route oral; details: in vivo, 0.5 h
[16] = system: Rattus norvegicus; assay: Inhibition of ADP-induced platelet aggregation in Sprague-Dawley rat assessed as blood loss volume at 0.625 mg/kg, po administered 2 hrs prior to transection measured for 30 mins (reference value: < 0.5 ml); type: organism-based; design: dose 0.625 mg/kg, route oral; details: in vivo, 0.5 h
[17] = system: Rattus norvegicus; assay: Inhibition of ADP-induced platelet aggregation in Sprague-Dawley rat assessed as bleeding time at 10 mg/kg, po after 2 hrs (reference value: 9.4 mins); type: organism-based; design: dose 10 mg/kg, route oral; details: in vivo
[18] = system: Rattus norvegicus; assay: Inhibition of ADP-induced platelet aggregation in Sprague-Dawley rat assessed as bleeding time at 5 mg/kg, po after 2 hrs (reference value: 9.4 mins); type: organism-based; design: dose 5 mg/kg, route oral; details: in vivo
[19] = system: Rattus norvegicus; assay: Inhibition of ADP-induced platelet aggregation in Sprague-Dawley rat assessed as bleeding time at 2.5 mg/kg, po after 2 hrs (reference value: 9.4 mins); type: organism-based; design: dose 2.5 mg/kg, route oral; details: in vivo
[20] = system: Rattus norvegicus; assay: Inhibition of ADP-induced platelet aggregation in Sprague-Dawley rat assessed as bleeding time at 1.25 mg/kg, po after 2 hrs (reference value: 9.4 mins); type: organism-based; design: dose 1.25 mg/kg, route oral; details: in vivo
[21] = system: Rattus norvegicus; assay: Inhibition of ADP-induced platelet aggregation in Sprague-Dawley rat assessed as bleeding time at 0.625 mg/kg, po after 2 hrs (reference value: 9.4 mins); type: organism-based; design: dose 0.625 mg/kg, route oral; details: in vivo
[22] = system: Rattus norvegicus; assay: Inhibition of ADP-induced platelet aggregation in Sprague-Dawley rat plasma at 2.5 mg/kg, po treated 2.5 hrs prior to ADP-challenge measured after 2 mins by light transmission-based assay; type: functional
[23] = target: Cytochrome P450 2C9 (Homo sapiens, UniProt P11712); assay: Inhibition of CYP2C9 (unknown origin); type: ADME
[24] = Inhibition of CYP450 (unknown origin) at 30 uM; type: ADME; details: human
[25] = target: Voltage-gated inwardly rectifying potassium channel KCNH2 (Homo sapiens, UniProt Q12809); assay: Inhibition of human ERG channel at 10 uM by patch-clamp technique
[26] = system: Rattus norvegicus; assay: as §1; type: ADME, organism-based; design: dose 10 mg/kg, route oral; details: in vivo

P2Y purinoceptor 12 (Rattus norvegicus), sequence (Q9EPX4 whole entry): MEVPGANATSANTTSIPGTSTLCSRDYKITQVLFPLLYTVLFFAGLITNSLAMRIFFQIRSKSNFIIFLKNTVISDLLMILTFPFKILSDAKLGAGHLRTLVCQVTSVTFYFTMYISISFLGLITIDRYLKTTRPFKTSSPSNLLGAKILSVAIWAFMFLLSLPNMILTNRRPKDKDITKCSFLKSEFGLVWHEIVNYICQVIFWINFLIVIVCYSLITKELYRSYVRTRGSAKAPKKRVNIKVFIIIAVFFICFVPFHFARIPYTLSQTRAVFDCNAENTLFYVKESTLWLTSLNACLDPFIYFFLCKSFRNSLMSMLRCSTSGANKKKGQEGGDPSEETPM
Voltage-gated inwardly rectifying potassium channel KCNH2, sequence (Q12809 whole entry): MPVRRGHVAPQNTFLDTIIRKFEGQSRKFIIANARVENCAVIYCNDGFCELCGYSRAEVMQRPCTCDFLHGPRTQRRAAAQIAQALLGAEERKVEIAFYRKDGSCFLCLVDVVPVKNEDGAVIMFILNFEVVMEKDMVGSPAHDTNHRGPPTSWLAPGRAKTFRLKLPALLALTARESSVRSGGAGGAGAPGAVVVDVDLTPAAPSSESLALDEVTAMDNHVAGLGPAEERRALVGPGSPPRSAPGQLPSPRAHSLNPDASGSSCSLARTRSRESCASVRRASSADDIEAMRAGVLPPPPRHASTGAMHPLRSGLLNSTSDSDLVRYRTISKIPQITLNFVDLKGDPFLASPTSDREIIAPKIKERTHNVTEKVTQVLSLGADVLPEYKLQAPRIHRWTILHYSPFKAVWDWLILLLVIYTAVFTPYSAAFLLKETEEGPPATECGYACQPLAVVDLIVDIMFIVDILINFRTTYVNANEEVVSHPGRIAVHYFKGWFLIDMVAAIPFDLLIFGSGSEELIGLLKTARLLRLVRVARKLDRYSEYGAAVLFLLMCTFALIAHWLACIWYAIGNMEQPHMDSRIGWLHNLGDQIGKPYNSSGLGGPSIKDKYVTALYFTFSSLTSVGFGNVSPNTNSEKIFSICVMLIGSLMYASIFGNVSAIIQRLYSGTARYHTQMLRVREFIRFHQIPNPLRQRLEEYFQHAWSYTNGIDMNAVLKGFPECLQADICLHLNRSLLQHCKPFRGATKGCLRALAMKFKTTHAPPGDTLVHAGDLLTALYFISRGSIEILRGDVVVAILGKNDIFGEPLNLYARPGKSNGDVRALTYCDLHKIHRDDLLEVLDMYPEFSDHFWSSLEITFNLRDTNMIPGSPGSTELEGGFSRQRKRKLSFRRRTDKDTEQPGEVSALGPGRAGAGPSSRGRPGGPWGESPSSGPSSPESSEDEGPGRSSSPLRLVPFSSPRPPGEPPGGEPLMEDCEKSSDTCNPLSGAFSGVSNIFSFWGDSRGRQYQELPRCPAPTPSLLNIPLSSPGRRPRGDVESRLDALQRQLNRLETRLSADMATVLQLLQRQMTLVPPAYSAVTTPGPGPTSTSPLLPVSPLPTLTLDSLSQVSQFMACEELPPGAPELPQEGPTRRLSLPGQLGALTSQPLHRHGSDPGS
Cytochrome P450 2C9, sequence (P11712 whole entry): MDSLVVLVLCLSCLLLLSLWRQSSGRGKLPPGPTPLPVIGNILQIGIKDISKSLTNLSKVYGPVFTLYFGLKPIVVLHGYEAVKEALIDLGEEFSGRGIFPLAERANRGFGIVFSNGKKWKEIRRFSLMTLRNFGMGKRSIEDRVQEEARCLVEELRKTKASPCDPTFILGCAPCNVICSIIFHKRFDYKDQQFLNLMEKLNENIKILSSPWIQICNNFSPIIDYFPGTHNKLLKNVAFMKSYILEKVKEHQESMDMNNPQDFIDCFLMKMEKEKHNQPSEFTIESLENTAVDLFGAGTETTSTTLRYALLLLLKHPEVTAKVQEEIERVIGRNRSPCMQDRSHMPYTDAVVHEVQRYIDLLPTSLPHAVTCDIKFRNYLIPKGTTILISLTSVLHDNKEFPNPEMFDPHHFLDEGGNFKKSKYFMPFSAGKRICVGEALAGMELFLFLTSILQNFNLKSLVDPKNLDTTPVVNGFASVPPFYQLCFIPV

| inhibition [1] [%] | AUC [2] [ng·h/mL] | Cmax [3] [ng/mL] | half-life [4] [h] | Vd/F [5] [L/kg] | CL/F [6] [mL/min/kg] | AUC [7] [ng·h/mL] | Cmax [8] [ng/mL] | half-life [9] [h] | Vd/F [10] [L/kg] | CL/F [11] [mL/min/kg] | SMILES | further results |
| --- | --- | --- | --- | --- | --- | --- | --- | --- | --- | --- | --- | --- |
|  | 504 | 125 | 2.03 | 5.76 | 32.8 | 1400 | 267 | 2.23 | 24.2 | 133 | CCCSc1nc(N[C@@H]2C[C@H]2c2ccc(F)c(F)c2)c2nnn([C@@H]3C[C@H](OCCO)[C@@H](O)[C@H]3O)c2n1 [TICAGRELOR] | Activity [14]: 0.5 mL; Time [19]: > 30 min; inhibition in vivo at 2.5 mg/kg [22]: 59% |
| 0 |  |  |  |  |  |  |  |  |  |  | CCCSc1nc(N[C@@H]2C[C@H]2c2ccc(F)c(F)c2)c2nnn([C@@H]3C[C@H](OCCOCCO)[C@@H](O)[C@H]3O)c2n1 |  |
|  |  |  |  |  |  | 13.8 | 3.89 | 1.72 |  |  | CCCSc1nc(N[C@@H]2C[C@H]2c2ccc(F)c(F)c2)c2nnn([C@@H]3C[C@H](OCC(O)CO)[C@@H](O)[C@H]3O)c2n1 (mixture of isomers) | Vz/F [26]: 1513 L/kg |
|  | 218 | 55.6 | 2.46 | 15.4 | 72.3 | 512 | 127 | 2.83 | 82.4 | 350 | CCCSc1nc(N[C@@H]2C[C@H]2c2ccc(F)c(F)c2)c2nnn([C@H]3[C@H](O)[C@H](O)[C@@H](OCCO)[C@H]3F)c2n1 |  |

The next lines start with the molecule.

| SMILES | inhibition [1] [%] | AUC [2] [ng·h/mL] | Cmax [3] [ng/mL] | half-life [4] [h] | Vd/F [5] [L/kg] | CL/F [6] [mL/min/kg] | AUC [7] [ng·h/mL] | Cmax [8] [ng/mL] | half-life [9] [h] | Vd/F [10] [L/kg] | CL/F [11] [mL/min/kg] | further results |
| --- | --- | --- | --- | --- | --- | --- | --- | --- | --- | --- | --- | --- |
| CCCSc1nc(N[C@@H]2C[C@H]2c2ccc(F)c(F)c2)c2nnn([C@H]3[C@H](O)[C@H](O)[C@]4(CO)C[C@H]34)c2n1 | 0 |  |  |  |  |  |  |  |  |  |  |  |
| CCCSc1nc(N[C@@H]2C[C@H]2c2ccc(F)c(F)c2)c2nnn([C@@H]3C[C@H](F)[C@@H](O)[C@H]3O)c2n1 |  | 24.3 | 8.29 | 1.21 | 88.4 | 865 | 1270 | 195 | 2.33 | 27.1 | 137 |  |
| CCCSc1nc(N[C@@H]2C[C@H]2c2ccc(F)c(F)c2)c2nnn(C3[C@H](O)[C@H](O)[C@@H](O)[C@H]3O)c2n1 (some centres undefined) |  |  |  |  |  |  | 146 | 55.4 | 1.7 | 217 | 2200 |  |
| CCCSc1nc(N[C@@H]2C[C@H]2c2ccc(F)c(F)c2)c2nnn([C@H]3[C@H](O)[C@H](O)[C@@H](O)[C@H]3F)c2n1 |  | 469 | 110 | 1.94 | 6.26 | 36.7 | 1200 | 303 | 3.56 | 43.4 | 139 | Activity [12]: 1.75 mL; Activity [13]: 0.9 mL; Activity [14]: < 0.5 mL; Activity [15]: < 0.5 mL; Activity [16]: < 0.5 mL; Time [17]: > 30 min; Time [18]: > 30 min; Time [19]: 9.76 min; Time [20]: 10.67 min; Time [21]: 8.59 min; inhibition in vivo at 2.5 mg/kg [22]: 95%; IC50 [23]: 8.82 µM; inhibition (INH) [24]: Not Active; inhibition (INH) [25]: Not Active |
| CCCSc1nc(NC2Cc3ccccc3C2)c2nnn([C@@H]3C[C@H](OCCO)[C@@H](O)[C@H]3O)c2n1 | 0 |  |  |  |  |  |  |  |  |  |  |  |
| CCCSc1nc(N[C@@H]2C[C@H]2c2ccc(Cl)s2)c2nnn([C@@H]3C[C@H](OCCO)[C@@H](O)[C@H]3O)c2n1 |  |  |  |  |  |  | 64.4 | 28.7 | 3.35 | 206 | 712 |  |
